Test results reported in ChEMBL document CHEMBL3045426, “Synthesis, Antiviral and Antibacterial Activities of Isatin Mannich Bases” (Med Chem Res, 2005).
≈ marks a conversion by molar mass, not a printed value.

Assays:
[1] = system: Hepatitis C virus; test: Antiviral activity against Hepatitis C virus BM4-5 infected in Huh7 cells assessed as inhibition of viral RNA replication by phosphor screening method; type: functional, Hepacivirus hominis, Huh-7
[2] = system: Human immunodeficiency virus 1; test: Antiviral activity against Human immunodeficiency virus 1 IIIB infected CEM cells assessed as protection against viral infection after 6 days by XTT assay; type: functional, CCRF-CEM; set-up: concentration or dose not given beside the values
[3] = system: Proteus vulgaris; test: Antimicrobial activity against Proteus vulgaris after 18 to 20 hr by agar dilution method; type: functional
[4] = system: Shigella sonnei; test: Antimicrobial activity against Shigella sonnei after 18 to 20 hr by agar dilution method; type: functional
[5] = system: Klebsiella pneumoniae; test: Antimicrobial activity against Klebsiella pneumoniae after 18 to 20 hr by agar dilution method; type: functional
[6] = system: Mycobacterium tuberculosis; test: Antimycobacterial activity against Mycobacterium tuberculosis H37Rv ATCC 27294 at 6.25 ug/ml by MABA; type: functional
[7] = system: Citrobacter freundii; test: Antimicrobial activity against Citrobacter freundii after 18 to 20 hr by agar dilution method; type: functional
[8] = system: Staphylococcus aureus; test: Antimicrobial activity against Staphylococcus aureus after 18 to 20 hr by agar dilution method; type: functional
[9] = system: Escherichia coli; test: Antimicrobial activity against Escherichia coli NCTC 10418 after 18 to 20 hr by agar dilution method; type: functional
[10] = system: Salmonella typhi; test: Antimicrobial activity against Salmonella enterica subsp. enterica serovar Typhi after 18 to 20 hr by agar dilution method; type: functional
[11] = system: Shigella boydii; test: Antimicrobial activity against Shigella boydii after 18 to 20 hr by agar dilution method; type: functional
[12] = system: Vibrio fluvialis; test: Antimicrobial activity against Vibrio fluvialis after 18 to 20 hr by agar dilution method; type: functional
[13] = system: Vibrio cholerae; test: Antimicrobial activity against Vibrio cholerae 0139 after 18 to 20 hr by agar dilution method; type: functional; conditions: 139
[14] = system: Human immunodeficiency virus 1; test: Antiviral activity against Human immunodeficiency virus 1 IIIB infected MT4 cells assessed as inhibition of virus-induced cytopathicity after 5 days by MTT assay; type: functional, organism-based; conditions: MT4, 120 h
[15] = system: Vibrio cholerae; test: Antimicrobial activity against Vibrio cholerae 01 after 18 to 20 hr by agar dilution method; type: functional; conditions: 1
[16] = system: Morganella morganii; test: Antimicrobial activity against Morganella morganii after 18 to 20 hr by agar dilution method; type: functional
[17] = system: Priestia megaterium; test: Antimicrobial activity against Bacillus megaterium after 18 to 20 hr by agar dilution method; type: functional
[18] = system: Human immunodeficiency virus 1; test: Antiviral activity against Human immunodeficiency virus 1 IIIB infected MT4 cells assessed as protection against viral infection after 5 days by MTT assay; type: functional; set-up: concentration or dose not given beside the values
[19] = system: Enterobacter; test: Antimicrobial activity against Enterobacter after 18 to 20 hr by agar dilution method; type: functional
[20] = system: Pseudomonas aeruginosa; test: Antimicrobial activity against Pseudomonas aeruginosa after 18 to 20 hr by agar dilution method; type: functional
[21] = system: Salmonella paratyphi; test: Antimicrobial activity against Salmonella enterica subsp. enterica serovar Paratyphi A after 18 to 20 hr by agar dilution method; type: functional
[22] = Cytotoxicity against Homo sapiens (human) CEM cells after 5 days by MTT assay; type: cell-based; conditions: CEM cells (CCRF-CEM)
[23] = system: Klebsiella pneumoniae; test: Antimicrobial activity against Klebsiella pneumoniae subsp. ozaenae after 18 to 20 hr by agar dilution method; type: functional
[24] = system: Plesiomonas; test: Antimicrobial activity against Plesiomonas after 18 to 20 hr by agar dilution method; type: functional
[25] = system: Edwardsiella tarda; test: Antimicrobial activity against Edwardsiella tarda after 18 to 20 hr by agar dilution method; type: functional
[26] = Cytotoxicity against Homo sapiens (human) HuH7 cells assessed as cell growth at 50 ug/ml after 3 days by Neutral red assay; type: cell-based, Huh-7; conditions: read-out: Activity
[27] = system: Vibrio mimicus; test: Antimicrobial activity against Vibrio mimicus after 18 to 20 hr by agar dilution method; type: functional
[28] = system: Salmonella enteritidis; test: Antimicrobial activity against Salmonella enterica subsp. enterica serovar Enteritidis after 18 to 20 hr by agar dilution method; type: functional
[29] = system: Proteus mirabilis; test: Antimicrobial activity against Proteus mirabilis after 18 to 20 hr by agar dilution method; type: functional
[30] = system: Human immunodeficiency virus 1; test: Antiviral activity against Human immunodeficiency virus 1 IIIB infected CEM cells assessed as inhibition of virus-induced cytopathicity after 6 days by XTT assay; type: functional, organism-based; conditions: CCRF-CEM, 144 h
[31] = system: Salmonella typhimurium; test: Antimicrobial activity against Salmonella enterica subsp. enterica serovar Typhimurium after 18 to 20 hr by agar dilution method; type: functional
[32] = system: Vibrio parahaemolyticus; test: Antimicrobial activity against Vibrio parahaemolyticus after 18 to 20 hr by agar dilution method; type: functional
[33] = Cytotoxicity against Homo sapiens (human) MT4 cells after 5 days by MTT assay; type: cell-based

Row | SMILES | inhibition (INH) [1] [%] | Activity [2] [%] | MIC [3] [µg/mL] | MIC [4] [µg/mL] | MIC [5] [µg/mL] | inhibition at 6.25 µg/mL [6] [%] | MIC [7] [µg/mL] | MIC [8] [µg/mL] | MIC [9] [µg/mL] | MIC [10] [µg/mL] | MIC [11] [µg/mL] | MIC [12] [µg/mL] | MIC [13] [µg/mL] | EC50 [14] [µg/mL] | MIC [15] [µg/mL] | MIC [16] [µg/mL] | MIC [17] [µg/mL] | Activity [18] [%] | MIC [19] [µg/mL] | MIC [20] [µg/mL] | further results
1 | COc1cc(Cc2cnc(/N=C3\C(=O)N(CN4CCN(c5ccc(Cl)cc5)CC4)c4ccc(Cl)cc43)nc2N)cc(OC)c1OC | 99 | 22.64 | 1250 (≈ 1890 µM) | 1250 (≈ 1890 µM) | 1250 (≈ 1890 µM) | 40 | 1250 (≈ 1890 µM) | 1250 (≈ 1890 µM) | 1250 (≈ 1890 µM) | 1250 (≈ 1890 µM) | 39.1 (≈ 59 µM) | 1250 (≈ 1890 µM) | 1250 (≈ 1890 µM) | > 38.6 | 4.88 (≈ 7.37 µM) | 1250 (≈ 1890 µM) | 1250 (≈ 1890 µM) | 32.6 | 1250 (≈ 1890 µM) | 2500 (≈ 3770 µM) | MIC [21]: 625 µg/mL (≈ 943 µM); CC50 at 120 h [22]: 40.1 µg/mL (≈ 60.5 µM); MIC [23]: 1250 µg/mL (≈ 1890 µM); MIC [24]: 19.5 µg/mL (≈ 29.5 µM); MIC [25]: 625 µg/mL (≈ 943 µM); viability at 72 h, 50 ug/ml [26]: 56%; MIC [27]: 9.76 µg/mL (≈ 14.7 µM); MIC [28]: 1250 µg/mL (≈ 1890 µM); MIC [29]: 1250 µg/mL (≈ 1890 µM); EC50 [30]: > 40.1 µg/mL; MIC [31]: 1250 µg/mL (≈ 1890 µM); MIC [32]: 2.44 µg/mL (≈ 3.68 µM); CC50 at 120 h [33]: 38.6 µg/mL (≈ 58.3 µM)
2 | COc1cc(Cc2cnc(/N=C3\C(=O)N(CN4CCN(C(=O)c5ccc(F)cc5)CC4)c4ccc(Cl)cc43)nc2N)cc(OC)c1OC | 91 | 23.38 | 2500 (≈ 3710 µM) | 2500 (≈ 3710 µM) | 2500 (≈ 3710 µM) | 38 | 2500 (≈ 3710 µM) | 2500 (≈ 3710 µM) | 2500 (≈ 3710 µM) | 2500 (≈ 3710 µM) | 39.1 (≈ 57.9 µM) | 2500 (≈ 3710 µM) | 1250 (≈ 1850 µM) | > 60.6 | 39.1 (≈ 57.9 µM) | 2500 (≈ 3710 µM) | 2500 (≈ 3710 µM) | 30.2 | 625 (≈ 927 µM) | 2500 (≈ 3710 µM) | MIC [21]: 625 µg/mL (≈ 927 µM); CC50 at 120 h [22]: 51 µg/mL (≈ 75.7 µM); MIC [23]: 2500 µg/mL (≈ 3710 µM); MIC [24]: 9.76 µg/mL (≈ 14.5 µM); MIC [25]: 2500 µg/mL (≈ 3710 µM); viability at 72 h, 50 ug/ml [26]: 71%; MIC [27]: 2.44 µg/mL (≈ 3.62 µM); MIC [28]: 2500 µg/mL (≈ 3710 µM); MIC [29]: 2500 µg/mL (≈ 3710 µM); EC50 [30]: > 51 µg/mL; MIC [31]: 2500 µg/mL (≈ 3710 µM); MIC [32]: 4.88 µg/mL (≈ 7.24 µM); CC50 at 120 h [33]: 60.6 µg/mL (≈ 89.9 µM)
3 | COc1cc(Cc2cnc(/N=C3\C(=O)N(CN4CCN(C)CC4)c4ccc(Cl)cc43)nc2N)cc(OC)c1OC | 71 | 21.09 | 1250 (≈ 2210 µM) | 1250 (≈ 2210 µM) | 1250 (≈ 2210 µM) | 35 | 1250 (≈ 2210 µM) | 1250 (≈ 2210 µM) | 1250 (≈ 2210 µM) | 1250 (≈ 2210 µM) | 19.5 (≈ 34.5 µM) | 1250 (≈ 2210 µM) | 312 (≈ 552 µM) | > 80.7 | 1.22 (≈ 2.16 µM) | 1250 (≈ 2210 µM) | 1250 (≈ 2210 µM) | 48.6 | 312 (≈ 552 µM) | 1250 (≈ 2210 µM) | MIC [21]: 156 µg/mL (≈ 276 µM); CC50 at 120 h [22]: 88 µg/mL (≈ 155 µM); MIC [23]: 1250 µg/mL (≈ 2210 µM); MIC [24]: 4.88 µg/mL (≈ 8.62 µM); MIC [25]: 625 µg/mL (≈ 1100 µM); viability at 72 h, 50 ug/ml [26]: 83%; MIC [27]: 1.22 µg/mL (≈ 2.16 µM); MIC [28]: 1250 µg/mL (≈ 2210 µM); MIC [29]: 1250 µg/mL (≈ 2210 µM); EC50 [30]: > 88 µg/mL; MIC [31]: 1250 µg/mL (≈ 2210 µM); MIC [32]: 0.61 µg/mL (≈ 1.08 µM); CC50 at 120 h [33]: 80.7 µg/mL (≈ 143 µM)
4 | COc1cccc(N2CCN(CN3C(=O)/C(=N\c4ncc(Cc5cc(OC)c(OC)c(OC)c5)c(N)n4)c4cc(Cl)ccc43)CC2)c1 | 100 | 21.93 | 1250 (≈ 1900 µM) | 625 (≈ 950 µM) | 625 (≈ 950 µM) | 33 | 1250 (≈ 1900 µM) | 156 (≈ 237 µM) | 2500 (≈ 3800 µM) | 1250 (≈ 1900 µM) | 0.61 (≈ 0.927 µM) | 1250 (≈ 1900 µM) | 312 (≈ 475 µM) | > 32.6 | 1.22 (≈ 1.85 µM) | 2500 (≈ 3800 µM) | 1250 (≈ 1900 µM) | 10.7 | 1250 (≈ 1900 µM) | 2500 (≈ 3800 µM) | MIC [21]: 156 µg/mL (≈ 237 µM); CC50 at 120 h [22]: 23.3 µg/mL (≈ 35.4 µM); MIC [23]: 1250 µg/mL (≈ 1900 µM); MIC [24]: 0.61 µg/mL (≈ 0.927 µM); MIC [25]: 1250 µg/mL (≈ 1900 µM); viability at 72 h, 50 ug/ml [26]: 71%; MIC [27]: 0.61 µg/mL (≈ 0.927 µM); MIC [28]: 1250 µg/mL (≈ 1900 µM); MIC [29]: 2500 µg/mL (≈ 3800 µM); EC50 [30]: > 23.3 µg/mL; MIC [31]: 2500 µg/mL (≈ 3800 µM); MIC [32]: 2.44 µg/mL (≈ 3.71 µM); CC50 at 120 h [33]: 32.6 µg/mL (≈ 49.5 µM)
